According to article PMC4450297, “Screening Active Compounds from Garcinia Species Native to China Reveals Novel Compounds Targeting the STAT/JAK Signaling Pathway” (BioMed Research International, 2015):

Experiments:
Test in all cases: Cell panel screen (CellTiter-Glo)
Type in all cases: cell-based, human
HPAF-II = HPAF-II (Pancreas), 20 micromolar, 72 hrs
How it was run: (§1)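 Steps: seed cells, culture overnight at 37°C; add compound diluted in medium from DMSO stock to 20 μM final; incubate 72 h; add detection reagent for 10 min; read luminescence; compute % inhibition versus vehicle controls.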

SW13 = SW13 (Adrenal gland), 20 micromolar, 72 hrs
How it was run: as §1

RL95 = RL95 (Uterus), 20 micromolar, 72 hrs
How it was run: as §1

HCC1395 = HCC1395 (Breast), 20 micromolar, 72 hrs
How it was run: as §1

TCCSUP = TCCSUP (Urinary bladder), 20 micromolar, 72 hrs
How it was run: as §1

HEC-1-A = HEC-1-A (Uterus), 20 micromolar, 72 hrs
How it was run: as §1

HGC-27 = HGC-27 (Stomach), 20 micromolar, 72 hrs
How it was run: as §1

NCI-H28 = NCI-H28 (Lung), 20 micromolar, 72 hrs
How it was run: as §1

NCI-H1694 = NCI-H1694 (Lung), 20 micromolar, 72 hrs
How it was run: as §1

Bel-7402 = Bel-7402 (Liver), 20 micromolar, 72 hrs
How it was run: as §1

A704 = A704 (Kidney), 20 micromolar, 72 hrs
How it was run: as §1

CW-2 = CW-2 (Colon), 20 micromolar, 72 hrs
How it was run: as §1

A498 = A498 (listed under Lung), 20 micromolar, 72 hrs
How it was run: as §1

Panc 03.27 = Panc 03.27 (Pancreas), 20 micromolar, 72 hrs
How it was run: as §1

HT-1197 = HT-1197 (Urinary bladder), 20 micromolar, 72 hrs
How it was run: as §1

BT-474 = BT-474 (Breast), 20 micromolar, 72 hrs
How it was run: as §1

M059J = M059J (Brain), 20 micromolar, 72 hrs
How it was run: as §1

ZR-75-30 = ZR-75-30 (Breast), 20 micromolar, 72 hrs
How it was run: as §1

NCI-H1623 = NCI-H1623 (Lung), 20 micromolar, 72 hrs
How it was run: as §1

C8166 = C8166 (Leukemia), 20 micromolar, 72 hrs
How it was run: as §1

BT-549 = BT-549 (Breast), 20 micromolar, 72 hrs
How it was run: as §1

HCC1937 = HCC1937 (Breast), 20 micromolar, 72 hrs
How it was run: as §1

HCC1569 = HCC1569 (Breast), 20 micromolar, 72 hrs
How it was run: as §1

CCF-STTG1 = CCF-STTG1 (Brain), 20 micromolar, 72 hrs
How it was run: as §1

C3A = C3A (Liver), 20 micromolar, 72 hrs
How it was run: as §1

NCI-H524 = NCI-H524 (Lung), 20 micromolar, 72 hrs
How it was run: as §1

ChaGo-K-1 = ChaGo-K-1 (Lung), 20 micromolar, 72 hrs
How it was run: as §1

J82 = J82 (Urinary bladder), 20 micromolar, 72 hrs
How it was run: as §1

T47D = T47D (Breast), 20 micromolar, 72 hrs
How it was run: as §1

Colo 205 = conditions: Colo 205, 20 micromolar, 72 hrs
How it was run: as §1

NCI-H1770 = NCI-H1770 (Lung), 20 micromolar, 72 hrs
How it was run: as §1

T98G = T98G (Brain), 20 micromolar, 72 hrs
How it was run: as §1

NCI-H2405 = NCI-H2405 (Lung), 20 micromolar, 72 hrs
How it was run: as §1

MSTO-211-H = MSTO-211-H (Lung), 20 micromolar, 72 hrs
How it was run: as §1

HCC1599 = HCC1599 (Breast), 20 micromolar, 72 hrs
How it was run: as §1

NCI-H2347 = NCI-H2347 (Lung), 20 micromolar, 72 hrs
How it was run: as §1

Structure (SMILES) | Percent Inhibition (HPAF-II) | Percent Inhibition (SW13) | Percent Inhibition (RL95) | Percent Inhibition (HCC1395) | Percent Inhibition (TCCSUP) | Percent Inhibition (HEC-1-A) | Percent Inhibition (HGC-27) | Percent Inhibition (NCI-H28) | Percent Inhibition (NCI-H1694) | Percent Inhibition (Bel-7402) | Percent Inhibition (A704) | Percent Inhibition (CW-2) | Percent Inhibition (A498) | Percent Inhibition (Panc 03.27) | Percent Inhibition (HT-1197) | Percent Inhibition (BT-474) | Percent Inhibition (M059J) | Percent Inhibition (ZR-75-30) | Percent Inhibition (NCI-H1623) | Percent Inhibition (C8166) | also measured
COc1c(CC=C(C)C)cc2c(=O)c3c(O)cc(O)cc3oc2c1OC [gl-6] | 36% | 18% | 46% | 44% | 36% | 40% | 55% | 39% | 46% | 27% | 27% | 51% | 47% | 45% | 36% | 25% | 44% | 90% | 14% | 41% | Percent Inhibition (BT-549): 14%; Percent Inhibition (HCC1937): 32%; Percent Inhibition (HCC1569): 34%; Percent Inhibition (CCF-STTG1): 45%; Percent Inhibition (C3A): 41%; Percent Inhibition (NCI-H524): 9%; Percent Inhibition (ChaGo-K-1): 59%; Percent Inhibition (J82): 52%; Percent Inhibition (T47D): 31%; Percent Inhibition (Colo 205): 43%; Percent Inhibition (NCI-H1770): 23%; Percent Inhibition (T98G): 31%; Percent Inhibition (NCI-H2405): 25%; Percent Inhibition (MSTO-211-H): 16%; Percent Inhibition (HCC1599): 42%; Percent Inhibition (NCI-H2347): 22%
CCOC1C2C(=O)c3c(O)c4c(c(CC=C(C)C)c3O[C@@]23[C@H]2C[C@@H]1C(=O)[C@]3(C/C=C(/C)C(=O)O)OC2(C)C)OC(C)(CCC=C(C)C)C=C4 (stereo partly drawn) [GB19] | 98% | 99% | 99% | 99% | 99% | 99% | 99% | 99% | 99% | 99% | 99% | 99% | 99% | 99% | 99% | 99% | 99% | 99% | 99% | 99% | Percent Inhibition (BT-549): 99%; Percent Inhibition (HCC1937): 99%; Percent Inhibition (HCC1569): 99%; Percent Inhibition (CCF-STTG1): 99%; Percent Inhibition (C3A): 99%; Percent Inhibition (NCI-H524): 99%; Percent Inhibition (ChaGo-K-1): 99%; Percent Inhibition (J82): 99%; Percent Inhibition (T47D): 99%; Percent Inhibition (Colo 205): 99%; Percent Inhibition (NCI-H1770): 99%; Percent Inhibition (T98G): 99%; Percent Inhibition (NCI-H2405): 99%; Percent Inhibition (MSTO-211-H): 99%; Percent Inhibition (HCC1599): 99%; Percent Inhibition (NCI-H2347): 98%
CC(C)=CCc1c(O)cc2oc3c(c(=O)c2c1O)C(CC=C(C)C)(CC=C(C)C)C(=O)C(O)=C3 [bn-2, Allanxanthone C] | 28% | 15% | 70% | 84% | 75% | 51% | 53% | 52% | 99% | 64% | 4% | 72% | 34% | 48% | 38% | 22% | 51% | 86% | 49% | 86% | Percent Inhibition (BT-549): 54%; Percent Inhibition (HCC1937): 75%; Percent Inhibition (HCC1569): 63%; Percent Inhibition (CCF-STTG1): 52%; Percent Inhibition (C3A): 39%; Percent Inhibition (NCI-H524): 97%; Percent Inhibition (ChaGo-K-1): 75%; Percent Inhibition (J82): 43%; Percent Inhibition (T47D): 54%; Percent Inhibition (Colo 205): 69%; Percent Inhibition (NCI-H1770): 90%; Percent Inhibition (T98G): 98%; Percent Inhibition (NCI-H2405): 40%; Percent Inhibition (MSTO-211-H): 72%; Percent Inhibition (HCC1599): 79%; Percent Inhibition (NCI-H2347): 40%
